Measurements as given in ChEMBL document CHEMBL1153520, “A multivalent approach to the design and discovery of orally efficacious 5-HT4 receptor agonists” (J Med Chem, 2009).
Activity calls are given as the source filed them. The calls are words filed in the database; no cut-off is given here.

Legend:
[1] = target: 5-hydroxytryptamine receptor 2A (Homo sapiens) (UniProt P28223); assay: Inhibition of 5HT2A receptor at 10 uM
[2] = AUC (0 to t) in Sprague-Dawley rat at 5 mg/kg, po; assay type: ADME, organism-based; parameters: dose 5 mg/kg, route oral; conditions: plasma
Rattus norvegicus [3] = assay: Induction of 5HT4 receptor-mediated relaxation of esophagus in intraduodenal dosed anesthetized Sprague-Dawley rat by digital sonomicrometry; assay type: functional, organism-based
hERG (KCNH2) = hERG (KCNH2) (Homo sapiens, UniProt Q12809); assay: Inhibition of human ERG potassium channel expressed in CHO-K1 cells at 3 uM by whole cell voltage clamp assay; assay type: cell-based; conditions: CHO-K1 cells expressing human ERG potassium channel
Sequence of hERG (KCNH2) (Q12809 whole entry): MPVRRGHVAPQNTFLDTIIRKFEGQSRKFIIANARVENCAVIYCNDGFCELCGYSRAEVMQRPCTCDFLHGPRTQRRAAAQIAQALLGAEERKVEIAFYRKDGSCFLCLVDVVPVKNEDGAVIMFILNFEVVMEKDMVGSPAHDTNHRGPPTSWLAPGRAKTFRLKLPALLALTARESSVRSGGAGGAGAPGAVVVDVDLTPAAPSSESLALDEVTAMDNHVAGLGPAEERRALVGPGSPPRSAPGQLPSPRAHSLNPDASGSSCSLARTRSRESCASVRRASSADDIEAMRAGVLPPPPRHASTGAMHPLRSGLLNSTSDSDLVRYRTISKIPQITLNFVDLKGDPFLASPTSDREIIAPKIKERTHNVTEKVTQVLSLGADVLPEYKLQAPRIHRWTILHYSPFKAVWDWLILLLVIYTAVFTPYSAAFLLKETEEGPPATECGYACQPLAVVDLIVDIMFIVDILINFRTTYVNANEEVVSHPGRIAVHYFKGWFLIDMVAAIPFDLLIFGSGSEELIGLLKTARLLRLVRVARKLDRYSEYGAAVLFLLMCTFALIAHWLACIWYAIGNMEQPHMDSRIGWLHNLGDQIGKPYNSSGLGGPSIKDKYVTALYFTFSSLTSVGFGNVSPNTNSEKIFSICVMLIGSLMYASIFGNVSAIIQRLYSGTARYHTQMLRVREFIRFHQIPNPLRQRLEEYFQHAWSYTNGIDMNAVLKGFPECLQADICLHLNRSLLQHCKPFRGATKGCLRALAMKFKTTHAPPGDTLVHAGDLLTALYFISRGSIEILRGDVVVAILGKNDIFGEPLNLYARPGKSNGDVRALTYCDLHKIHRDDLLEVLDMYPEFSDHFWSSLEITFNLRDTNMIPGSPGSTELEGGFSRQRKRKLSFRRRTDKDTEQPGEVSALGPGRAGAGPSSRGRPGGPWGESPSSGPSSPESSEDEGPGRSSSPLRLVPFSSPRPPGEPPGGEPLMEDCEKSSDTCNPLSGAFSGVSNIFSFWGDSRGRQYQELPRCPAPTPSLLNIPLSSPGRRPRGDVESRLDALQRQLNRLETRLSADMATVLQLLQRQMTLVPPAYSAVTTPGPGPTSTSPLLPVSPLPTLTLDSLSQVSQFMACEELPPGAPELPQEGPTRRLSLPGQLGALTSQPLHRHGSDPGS

[4] = target: 5-hydroxytryptamine receptor 2B (Homo sapiens) (UniProt P41595); assay: Inhibition of 5HT2B receptor at 10 uM
Sequence of 5-hydroxytryptamine receptor 2B (Homo sapiens) (P41595 whole entry): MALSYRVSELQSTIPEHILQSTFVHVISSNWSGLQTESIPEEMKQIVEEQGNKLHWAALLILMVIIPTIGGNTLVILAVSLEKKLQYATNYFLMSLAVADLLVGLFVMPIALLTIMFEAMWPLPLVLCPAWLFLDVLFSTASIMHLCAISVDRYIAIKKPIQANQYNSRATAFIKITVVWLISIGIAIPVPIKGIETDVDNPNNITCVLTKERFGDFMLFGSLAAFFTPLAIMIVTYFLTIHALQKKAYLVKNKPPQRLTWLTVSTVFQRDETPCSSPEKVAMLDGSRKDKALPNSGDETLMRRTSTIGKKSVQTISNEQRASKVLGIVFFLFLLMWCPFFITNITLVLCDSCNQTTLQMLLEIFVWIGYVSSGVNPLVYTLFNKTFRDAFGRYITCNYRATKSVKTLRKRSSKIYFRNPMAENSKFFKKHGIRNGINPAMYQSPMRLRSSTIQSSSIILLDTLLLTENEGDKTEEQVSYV

[5] = Oral bioavailability in Sprague-Dawley rat at 5 mg/kg, po; assay type: ADME, organism-based; conditions: in vivo
Cavia porcellus [6] = assay: Increase in colonic transit in Duncan Hartley guinea pig colonic transit model assessed as prokinetic activity at 3 mg/kg, sc relative to vehicle treated control; assay type: functional, organism-based; parameters: dose 3 mg/kg
[7] = target: T1, 5-hydroxytryptamine receptor 4 (Homo sapiens, UniProt Q13639); assay: Displacement of [H]GR-113808 from human 5HT4C receptor expressed in HEK293 cells by liquid scintillation counting; assay type: cell-based
T1 sequence (Q13639 whole entry): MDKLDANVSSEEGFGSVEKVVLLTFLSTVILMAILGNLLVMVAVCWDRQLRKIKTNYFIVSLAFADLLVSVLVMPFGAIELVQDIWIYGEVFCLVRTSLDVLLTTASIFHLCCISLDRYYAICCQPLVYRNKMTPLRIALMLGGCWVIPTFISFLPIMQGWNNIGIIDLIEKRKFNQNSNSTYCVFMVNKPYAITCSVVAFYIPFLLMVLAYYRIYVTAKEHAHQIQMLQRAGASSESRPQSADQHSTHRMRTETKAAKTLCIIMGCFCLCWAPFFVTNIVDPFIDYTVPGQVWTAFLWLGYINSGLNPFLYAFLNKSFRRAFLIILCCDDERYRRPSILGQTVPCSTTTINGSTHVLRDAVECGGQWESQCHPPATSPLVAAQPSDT

Rattus norvegicus [8] = assay: Induction of 5HT4 receptor-mediated relaxation of esophagus in anesthetized Sprague-Dawley rat at 3 mg/kg, intraduodenally by digital sonomicrometry; assay type: functional, organism-based; parameters: dose 3 mg/kg
[9] = target: 5-hydroxytryptamine receptor 1D (Homo sapiens) (UniProt P28221); assay: Inhibition of 5HT1D receptor at 10 uM
Sequence of 5-hydroxytryptamine receptor 1D (Homo sapiens) (P28221 whole entry): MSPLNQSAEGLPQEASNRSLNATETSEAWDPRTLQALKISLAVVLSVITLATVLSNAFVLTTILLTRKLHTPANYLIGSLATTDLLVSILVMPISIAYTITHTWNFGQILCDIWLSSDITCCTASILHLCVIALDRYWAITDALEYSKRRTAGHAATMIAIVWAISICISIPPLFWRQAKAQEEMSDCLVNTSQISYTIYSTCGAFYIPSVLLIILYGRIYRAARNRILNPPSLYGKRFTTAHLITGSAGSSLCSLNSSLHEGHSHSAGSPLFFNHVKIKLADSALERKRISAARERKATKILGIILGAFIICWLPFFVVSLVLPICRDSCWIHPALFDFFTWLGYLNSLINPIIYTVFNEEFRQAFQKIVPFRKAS

[10] = Oral bioavailability in Beagle dog at 2 mg/kg, po; assay type: ADME, organism-based, Canis lupus familiaris; conditions: in vivo
[11] = target: T2, 5-hydroxytryptamine receptor 2C (Homo sapiens) (UniProt P28335); assay: Inhibition of 5HT2C receptor at 10 uM
T2 sequence (whole entry): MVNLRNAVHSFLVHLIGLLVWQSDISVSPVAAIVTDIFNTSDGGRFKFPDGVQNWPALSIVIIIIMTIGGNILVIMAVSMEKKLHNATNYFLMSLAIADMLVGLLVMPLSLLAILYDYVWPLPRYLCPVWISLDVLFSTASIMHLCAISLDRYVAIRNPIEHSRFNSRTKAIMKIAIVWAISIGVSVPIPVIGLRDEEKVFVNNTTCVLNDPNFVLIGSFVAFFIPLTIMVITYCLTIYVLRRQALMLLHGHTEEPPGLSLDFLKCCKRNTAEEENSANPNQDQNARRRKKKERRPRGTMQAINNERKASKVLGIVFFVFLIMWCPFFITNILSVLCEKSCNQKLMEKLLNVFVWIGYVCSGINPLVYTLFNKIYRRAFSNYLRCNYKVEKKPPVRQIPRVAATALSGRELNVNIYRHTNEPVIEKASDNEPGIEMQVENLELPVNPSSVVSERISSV

Homo sapiens = species: Homo sapiens; assay: Selectivity ratio of Ki for human 5HT3A receptor to Ki for human 5HT4C receptor
Cavia porcellus [12] = assay: Induction of colon longitudinal muscle contraction in sc dosed Duncan Hartley guinea pig; assay type: functional, organism-based; conditions: Muscle tissue
[13] = Cmax in Sprague-Dawley rat at 5 mg/kg, po; assay type: ADME, organism-based; parameters: dose 5 mg/kg, route oral; conditions: in vivo
[14] = Cmax in Beagle dog at 2 mg/kg, po; assay type: ADME, organism-based, Canis lupus familiaris; parameters: dose 2 mg/kg, route oral; conditions: in vivo
[15] = Permeability across human Caco-2 cells assessed as permeability coefficient; assay type: ADME, cell-based; conditions: read-out: permeability
[16] = target: 5-hydroxytryptamine receptor 6 (Homo sapiens) (UniProt P50406); assay: Inhibition of 5HT6 receptor at 10 uM
Sequence of 5-hydroxytryptamine receptor 6 (Homo sapiens) (P50406 whole entry): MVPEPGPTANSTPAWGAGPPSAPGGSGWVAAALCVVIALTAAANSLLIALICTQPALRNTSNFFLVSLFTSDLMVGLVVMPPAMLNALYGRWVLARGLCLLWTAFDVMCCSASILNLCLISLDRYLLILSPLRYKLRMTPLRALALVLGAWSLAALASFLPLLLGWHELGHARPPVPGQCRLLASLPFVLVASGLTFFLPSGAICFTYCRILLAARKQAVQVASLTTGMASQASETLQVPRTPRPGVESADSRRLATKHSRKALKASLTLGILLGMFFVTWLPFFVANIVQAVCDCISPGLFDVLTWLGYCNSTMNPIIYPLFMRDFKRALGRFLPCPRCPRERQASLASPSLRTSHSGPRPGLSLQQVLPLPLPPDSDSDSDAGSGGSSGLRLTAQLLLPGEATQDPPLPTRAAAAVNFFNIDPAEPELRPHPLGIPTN

Rattus norvegicus [17] = assay: Induction of 5HT4 receptor-mediated relaxation of esophagus in iv dosed anesthetized Sprague-Dawley rat by digital sonomicrometry; assay type: functional
[18] = target: 5-hydroxytryptamine receptor 7 (Homo sapiens) (UniProt P34969); assay: Inhibition of 5HT7 receptor at 10 uM
Sequence of 5-hydroxytryptamine receptor 7 (Homo sapiens) (P34969 whole entry): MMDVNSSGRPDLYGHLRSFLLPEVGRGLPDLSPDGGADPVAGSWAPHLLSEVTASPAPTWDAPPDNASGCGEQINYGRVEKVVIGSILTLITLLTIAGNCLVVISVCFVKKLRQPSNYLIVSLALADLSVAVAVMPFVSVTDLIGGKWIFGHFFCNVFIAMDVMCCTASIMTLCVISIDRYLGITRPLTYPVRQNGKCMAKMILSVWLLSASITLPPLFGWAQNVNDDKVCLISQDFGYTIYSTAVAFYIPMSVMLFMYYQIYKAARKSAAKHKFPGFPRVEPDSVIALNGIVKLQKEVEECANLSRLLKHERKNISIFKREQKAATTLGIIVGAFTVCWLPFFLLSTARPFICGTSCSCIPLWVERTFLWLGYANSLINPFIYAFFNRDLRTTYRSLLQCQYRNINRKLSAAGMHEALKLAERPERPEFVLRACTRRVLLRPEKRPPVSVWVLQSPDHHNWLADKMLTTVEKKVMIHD

[19] = target: T3, 5-hydroxytryptamine receptor 1A (Homo sapiens) (UniProt P08908); assay: Inhibition of 5HT1A receptor at 10 uM
T3 sequence (whole entry): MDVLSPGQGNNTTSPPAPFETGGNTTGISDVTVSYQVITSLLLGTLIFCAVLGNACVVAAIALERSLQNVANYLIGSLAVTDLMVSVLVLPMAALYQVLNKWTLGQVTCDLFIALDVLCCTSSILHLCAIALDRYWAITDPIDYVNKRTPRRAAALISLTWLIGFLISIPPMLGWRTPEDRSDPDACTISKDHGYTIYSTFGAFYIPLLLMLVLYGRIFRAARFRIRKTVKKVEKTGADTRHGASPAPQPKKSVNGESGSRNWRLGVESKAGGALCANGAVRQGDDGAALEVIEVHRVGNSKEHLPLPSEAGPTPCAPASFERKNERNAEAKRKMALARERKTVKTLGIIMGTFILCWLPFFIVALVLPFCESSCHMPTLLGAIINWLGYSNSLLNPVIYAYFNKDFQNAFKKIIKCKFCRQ

in vitro = conditions: rat, liver microsomes
[20] = target: T1, 5-hydroxytryptamine receptor 4; assay: Agonist activity at human 5HT4C receptor expressed in HEK293 cells assessed as accumulation of cAMP by flash plate adenylyl cyclase activation assay; assay type: functional, cell-based
[21] = target: T1, 5-hydroxytryptamine receptor 4; assay: Intrinsic activity at human 5HT4C receptor expressed in HEK293 cells assessed as accumulation of cAMP by flash plate adenylyl cyclase activation assay relative to serotonin; assay type: functional, cell-based
[22] = Half life in Sprague-Dawley rat at 5 mg/kg, po; assay type: ADME, organism-based; parameters: dose 5 mg/kg, route oral; conditions: in vivo
[23] = target: T2, 5-hydroxytryptamine receptor 2C (Homo sapiens); assay: Inhibition of 5HT1C receptor at 10 uM
[24] = target: 5-hydroxytryptamine receptor 5A (Homo sapiens) (UniProt P47898); assay: Inhibition of 5HT5A receptor at 10 uM
Sequence of 5-hydroxytryptamine receptor 5A (Homo sapiens) (P47898 whole entry): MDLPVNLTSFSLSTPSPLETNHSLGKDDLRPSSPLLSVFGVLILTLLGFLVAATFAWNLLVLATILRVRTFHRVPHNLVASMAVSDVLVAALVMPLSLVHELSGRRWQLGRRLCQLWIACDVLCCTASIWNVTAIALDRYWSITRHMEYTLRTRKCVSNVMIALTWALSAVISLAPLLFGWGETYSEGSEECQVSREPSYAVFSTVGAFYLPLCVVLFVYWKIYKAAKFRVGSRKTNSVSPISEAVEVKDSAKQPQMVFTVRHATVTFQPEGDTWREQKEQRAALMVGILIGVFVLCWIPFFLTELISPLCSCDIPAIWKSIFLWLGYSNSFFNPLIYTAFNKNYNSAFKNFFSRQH

[25] = Oral bioavailability in human; assay type: ADME, organism-based; conditions: in vivo

Sequence of 5-hydroxytryptamine receptor 2A (Homo sapiens) (P28223 whole entry): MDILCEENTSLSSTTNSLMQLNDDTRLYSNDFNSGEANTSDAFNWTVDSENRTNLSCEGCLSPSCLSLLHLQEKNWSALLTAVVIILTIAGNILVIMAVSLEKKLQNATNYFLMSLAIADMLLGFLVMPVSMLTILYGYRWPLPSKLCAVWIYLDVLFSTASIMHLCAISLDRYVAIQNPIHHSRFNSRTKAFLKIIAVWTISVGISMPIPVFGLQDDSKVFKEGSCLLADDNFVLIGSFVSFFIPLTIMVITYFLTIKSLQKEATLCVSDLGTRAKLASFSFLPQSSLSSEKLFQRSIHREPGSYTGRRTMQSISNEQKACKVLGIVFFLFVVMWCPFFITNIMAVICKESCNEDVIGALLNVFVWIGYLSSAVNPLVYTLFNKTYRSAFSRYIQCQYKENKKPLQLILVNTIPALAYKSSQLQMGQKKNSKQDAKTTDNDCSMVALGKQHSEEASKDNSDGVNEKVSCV

SMILES | AUC(0-t) [2] [ng·h/mL] | inhibition at 3 µM (hERG (KCNH2)) [%] | bioavailability [5] [%] | Ki [7] [nM] | Ratio Ki (Homo sapiens) | Cmax [13] [ng/mL] | Papp [15] [×10⁻⁶ cm/s] | ED50 (Rattus norvegicus [17]) [mg/kg] | half-life (in vitro) [h] | EC50 [20] [nM] | Intrinsic activity [21] [%] | half-life [22] [h] | further results
CC(C)n1c(=O)c(C(=O)N[C@H]2C[C@H]3CC[C@@H](C2)N3C[C@@H](O)CN2CCN(S(C)(=O)=O)CC2)cc2ccccc21 | 200 | 4 | 20 | 12.6 | 7400 | 31 | 14 | 0.016 | > 1.5 | 0.398 | 94 | 5.2 | inhibition [1]: < 50%; Activity (Rattus norvegicus [3]): Dose-dependent effect; inhibition [4]: < 50%; Activity (Cavia porcellus [6]): Active; Activity (Rattus norvegicus [8]): Active; inhibition [9]: < 50%; bioavailability [10]: 63%; inhibition [11]: < 50%; EC50 (Cavia porcellus [12]): 2.51 nM; Cmax [14]: 320 ng/mL; inhibition [16]: < 50%; Activity (Rattus norvegicus [17]): Dose-dependent effect; inhibition [18]: < 50%; inhibition [19]: < 50%; inhibition [23]: < 50%; inhibition [24]: < 50%
COc1cc(N)c(Cl)cc1C(=O)NC1CCN(CCCOc2ccc(F)cc2)CC1OC (centres undefined) [CISAPRIDE] |  |  |  |  |  |  |  | 0.142 |  |  |  |  | 
CC(C)n1c(=O)c(C(=O)N[C@H]2C[C@H]3CC[C@@H](C2)N3CCCN2CCN(S(C)(=O)=O)CC2)cc2ccccc21 | 183 | 38 | 38 | 39.8 | 2300 | 34 | 20 |  | 0.683 | 1.58 | > 100 | 7.9 | 
CCCCCNC(=N)N/N=C/c1c[nH]c2ccc(OC)cc12 [TEGASEROD] | 21 |  | 5 |  |  | 6 | 11 | 0.0106 | > 1.5 |  |  | 1.8 | bioavailability [25]: 10%
CC(C)n1c(=O)c(C(=O)N[C@H]2C[C@H]3CC[C@@H](C2)N3CCCCCCCN2CCN(S(C)(=O)=O)CC2)cc2ccccc21 | 83 | 46 | 20 | 10 | 2600 | 10 | 22 |  | > 1.5 | 2.51 | > 100 | 20.3 | 
CC(C)n1c(=O)c(C(=O)N[C@H]2C[C@H]3CC[C@@H](C2)N3CCCN2CCN(c3ccccc3)CC2)cc2ccccc21 |  | 90 |  | 7.94 | 1000 |  | 22 |  |  | 0.794 | > 100 |  | 
CC(C)n1c(=O)c(C(=O)N[C@H]2C[C@H]3CC[C@@H](C2)N3CCCCCCCN2CCN(c3ccccc3)CC2)cc2ccccc21 |  | 97 |  | 3.98 | 5300 |  | 20 |  |  | 7.94 | > 100 |  | 
CC(C)n1c(=O)c(C(=O)N[C@H]2C[C@H]3CC[C@@H](C2)N3CCCN2CCC[C@@H]2C(N)=O)cc2ccccc21 |  | 12 |  | 50.1 | 1500 |  | 2 |  |  | 3.98 | > 100 |  | 
CC(C)n1c(=O)c(C(=O)N[C@H]2C[C@H]3CC[C@@H](C2)N3CCCCCCCN(C)CCCN(C)S(C)(=O)=O)cc2ccccc21 |  | 12 |  | 5.01 | 6500 |  | 3 |  |  | 0.631 | 96 |  | 
CC(C)n1c(=O)c(C(=O)N[C@H]2C[C@H]3CC[C@@H](C2)N3CCCN2CCC(CNS(C)(=O)=O)CC2)cc2ccccc21 |  | 14 |  | 5.01 | 11000 |  | 3 |  |  | 1 | > 100 |  | 
